Results on 3 compounds are retold here after US20090047567A1, “Biofuel cell, method for producing the same, electronic apparatus, enzyme-immobilized electrode, and method for producing the same” (SONY CORPORATION, priority 2007, published 2009).

One data set relates to diaphorase (DI). As to the kind of experiment: Michaelis constant Km and rate constant kcat of the enzymatic reaction using the electron mediator as a substrate (cyclic voltammetry in a solution containing NADH and DI). Format: biochemical, Bacillus stearothermophilus. To be noted: for ten times Km: 10 x Km of the electron mediator for DI, read-out: ten times the determined Km; for Km / kcat: electron mediator as substrate of DI, solution containing sufficient amounts of NADH and DI. An excerpt: GDH (EC1. 1. 1. 47) derived from Bacillus sp. was used as GDH, and DI(EC. 1. 6. 99. −) derived from Bacillus stearothermophilus was used as DI. Both were purchased from Amano Enzyme Inc. (Japan) and directly used without further purification. NADH, poly-L-lycine (PLL, Mw=about 93,800), and sodium polyacrylate (PAANa, Mw=about 240,000) were purchased from Sigma-Aldrich Co. VK3 was purchased from Nacalai Tesque, Inc. (Japan).
Then, the method for measuring the Michaelis constant Km and rate constant kcat of the enzymatic reaction using the electron mediator as a substrate is described.
The following electrochemical equation is established between the Michaelis constant Km and rate constant kcat (R. Matsumoto et al, J. Electroanal. Chem. 535 (2002)37).
wherein Is^lim is the current value of a flat portion of a curve obtained by cyclic voltammetry, nM is the number of electrons of the electron mediator, ns is the number of electrons of the substrate, F is the Faraday constant, A is the electrode surface area, DM is the diffusion constant of the substrate, [E] is the enzyme concentration, and [M]* is the concentration of the electron mediator.

Data set [1] in a line: Redox potential of the electron mediator by cyclic voltammetry in solution. Format: physicochemical.
The nature of data set [2]: Cyclic voltammetry of the GC bio-anode with immobilized VK3, no glucose. Type of data set: physicochemical. To be noted: immobilized VK3 on GC bio-anode; 0.1 M phosphate buffer pH 7.0, glucose absent; vs. Ag|AgCl. How it is done: The surface of a glassy carbon (GC) electrode of 3 mm in diameter which was purchased from BAS Inc. was polished with alumina powder having a particle diameter of 0.05 μm and washed with distilled water. Then, GDH, NADH, DI, and VK3 were immobilized on the GC electrode by a polyion complex method using electrostatic interaction between PAAcNa as polyanion and poly-L-lycine (PLL) as polycation according to the following procedures.
On the GC electrode, 10 μl of an aqueous PLL solution (2% (w/v)), 8 μl of a GDH solution (1 U/μl in a 0.1 M phosphate buffer solution (NaH2PO4 buffer solution) (pH 7.0)), 8 μl of a DI solution (10 U/μl in a phosphate buffer solution), 2 μl of a NADH solution (0.9 μmol/μl in a phosphate buffer solution), 4 μl of a VK3 solution (0.29 M in acetone), and 4 μl of an aqueous PAAcNa solution (0.066% (w/v)) were added in that order. After each of the addition steps, drying was performed at 40° C. for 10 minutes. Before electrochemical measurement, the GC electrode (referred to as a “GC bio-anode” hereinafter) on which an immobilized layer had been formed as described above was rinsed with distilled water for 5 minutes.
Cyclic voltammetry (CV) was performed using the GC bio-anode as a working electrode. […]

For `NC1=C(C(=O)O)C(=O)c2ccccc2C1=O` [ACNQ, 2-amino-3-carboxy-1,4-naphthoquinone], in the data set with diaphorase (DI), the ten times Km is 20 µM; the Km (as a rule, the concentration of substrate that gives half-maximal velocity) was 2 µM; the kcat (as a rule, the maximal rate divided by the concentration of active sites) worked out at 400 s⁻¹. The “E^o′ vs Ag|AgCl” value in data set [1] was −0.26.
With `NC1=CC(=O)c2ccccc2C1=O` [ANQ, 2-amino-1,4-naphthoquinone], in the data set with diaphorase (DI), the ten times Km was 360 µM, the Km came out at 36 µM and the turnover number (kcat) was 310 s⁻¹. In addition, in data set [1], the “E^o′ vs Ag|AgCl” value is given as −0.35.
On to `CC1=CC(=O)c2ccccc2C1=O` [VK3, 2-methyl-1,4-naphthoquinone], for which, in the data set on diaphorase (DI), the ten times Km came out at 4 µM, the Km is 0.4 µM and the kcat amounted to 630 s⁻¹. The “E^o′ vs Ag|AgCl” value in data set [1] is reported as −0.22. Further, in data set [2], the “middle point potential of oxidation and reduction waves” value is reported as −0.17 V.
